Data published in ChEMBL document CHEMBL1153365, “Identification of potent pyrimidine inhibitors of phosphodiesterase 7 (PDE7) and their ability to inhibit T cell proliferation” (Bioorg Med Chem Lett, 2009).
≈ marks a conversion by molar mass, not a printed value.

Experiments:
[1] = molecular target: cGMP-specific 3',5'-cyclic phosphodiesterase (Homo sapiens, UniProt O76074); test: Inhibition of PDE5
[2] = Aqueous solubility at pH 6.5; type: physicochemical
[3] = Inhibition of PDE7
[4] = Inhibition of PDE3
[5] = Inhibition of PDE1
PBMC [6] = test: Immunosuppressant activity in PBMC assessed as cytotoxicity; type: functional, cell-based; settings: Homo sapiens
[7] = Inhibition of PDE4
PBMC [8] = test: Immunosuppressant activity in PBMC assessed as antiproliferation after 3 days by [3H]thymidine incorporation assay; type: functional, cell-based; settings: Homo sapiens
Splenocyte = test: Immunosuppressant activity in wild type splenocyte assessed as antiproliferation; type: functional, cell-based; settings: Mus musculus
[9] = Immunosuppressant activity in PDE7 knockout splenocyte assessed as antiproliferation; type: functional, cell-based

| SMILES | IC50 [1] [µM] | solubility [2] [µg/mL] | IC50 [3] [µM] | IC50 [4] [µM] | IC50 [5] [µM] | IC50 [7] [µM] | IC50 (PBMC [6]) [µM] | IC50 (PBMC [8]) [µM] | IC50 (Splenocyte) [µM] | IC50 [9] [µM] |
| --- | --- | --- | --- | --- | --- | --- | --- | --- | --- | --- |
| CCOC(=O)c1sc(Nc2nc(N3CCC(N(C)C)CC3)cc(N3CCCC(CO)C3)n2)nc1C (stereo not given) | > 10 | > 20 | 0.12 | > 50 | 11 | 9.3 | > 25 | 5 |  |  |
| CCOC(=O)c1sc(Nc2nc(NC)cc(NCc3ccc(S(N)(=O)=O)cc3)n2)nc1C | 0.065 |  | 0.1 | > 50 | > 10 | 0.03 | > 25 | 0.5 |  |  |
| CCOC(=O)c1sc(Nc2nc(N3CCC(N(C)C)CC3)cc(N3CCN(C)CC3)n2)nc1C | > 10 | > 20 | 0.083 | 46 | > 50 | > 10 | 15 | 2.5 |  |  |
| CCOC(=O)c1sc(Nc2nc(NCc3ccc(S(N)(=O)=O)cc3)cc(N3CCNCC3)n2)nc1C | 0.072 | 20 (≈ 37.5 µM) | 0.01 | 2.8 | 4.1 | 0.22 | > 25 | 7.2 |  |  |
| CCOC(=O)c1sc(Nc2nc(N(C)Cc3cc(OC)c(OC)c(OC)c3)cc(N3CCN(C)CC3)n2)nc1C | 5.2 | > 20 | 0.039 | 27 | 4.1 | 5.1 | > 25 | 0.69 |  |  |
| CCOC(=O)c1sc(Nc2nc(NCc3ccc(OC)c(OC)c3)cc(N3CCNCC3)n2)nc1C | 0.32 | > 20 | 0.031 | 8 | > 10 | 2.3 | 12 | 1.2 |  |  |
| CCOC(=O)c1sc(Nc2nc(N(C)Cc3cc(OC)c(OC)c(OC)c3)cc(N3CCNCC3)n2)nc1C | 7.6 | > 20 | 0.01 | 22 | 7.9 | 3.2 | 14 | 0.45 |  |  |
| CCOC(=O)c1sc(Nc2nc(N3CCNCC3)c3c(n2)N(Cc2cc(OC)c(OC)c(OC)c2)CC3)nc1C |  |  | 0.006 |  |  |  |  |  |  |  |
| CCOC(=O)c1sc(Nc2nccc(NCc3ccc(S(N)(=O)=O)cc3)n2)nc1C |  |  | 0.22 |  |  |  |  |  |  |  |

The remaining molecules from weak to strong by IC50 [3], led by results:

| IC50 [1] [µM] | solubility [2] [µg/mL] | IC50 [3] [µM] | IC50 [4] [µM] | IC50 [5] [µM] | IC50 [7] [µM] | SMILES | IC50 (PBMC [6]) [µM] | IC50 (PBMC [8]) [µM] | IC50 (Splenocyte) [µM] | IC50 [9] [µM] |
| --- | --- | --- | --- | --- | --- | --- | --- | --- | --- | --- |
| > 10 | > 20 | 0.13 | 13 | 15 | 9.5 | CCOC(=O)c1sc(Nc2nc(N3CCOCC3)cc(N3CCC(N(C)C)CC3)n2)nc1C | > 25 | 2 |  |  |
| 6.5 | > 20 | 0.082 | > 50 | 23 | 8 | CCOC(=O)c1sc(Nc2nc(N3CCC(N(C)C)CC3)cc(N3CCNC(C(N)=O)C3)n2)nc1C (stereo not given) | > 25 | 3.1 |  |  |
| > 10 | 20 (≈ 40.8 µM) | 0.076 | > 50 | 23 | > 10 | CCOC(=O)c1sc(Nc2nc(N3CCC(O)CC3)cc(N3CCC(N(C)C)CC3)n2)nc1C | > 25 | 1.5 |  |  |
| 0.7 | 20 (≈ 43.2 µM) | 0.063 | 20 | 4.9 | 3.2 | CCOC(=O)c1sc(Nc2nc(N3CCC(O)CC3)cc(N3CCC(O)CC3)n2)nc1C | > 25 | 0.12 | 0.21 | 0.15 |
| > 10 | > 20 | 0.056 | 19 | 27 | 9.4 | CCOC(=O)c1sc(Nc2nc(N3CCN(C)CC3)cc(N3CCN(CCN(C)C)CC3)n2)nc1C | 15 | 2.2 |  |  |
|  |  | 0.01 |  |  |  | CCOC(=O)c1sc(Nc2nc(NCc3ccc(S(N)(=O)=O)cc3)c3c(ncn3CC)n2)nc1C |  |  |  |  |
